# Experimental data reported in patent publication US10662214B2, “Compound of 4′-thionucleoside, as well as preparation method therefor, pharmaceutical composition thereof and application thereof” (Sichuan Kelun-Biotech Biopharmaceutical Co., Ltd., priority 2015, dated 2020).
# “Also recorded” adds a separate entry of the source.
# Experiments:
# [1] = test system: gastric cancer cell NCI-N87; experiment: Subcutaneous xenograft of gastric cancer cell NCI-N87 in nude mice (Experimental example 2); format: in vivo; conditions: for TGI (%): twice a week for 3 weeks; for Body weight change: 14 days after last administration vs beginning; for Tumor regression, CR (complete tumor regression): animals out of 8
# Method: This experimental example was used for the evaluation of the effectiveness of the compounds of the present invention in inhibiting the proliferation of a subcutaneous xenograft of human tumor cells via various routes of administration.
# Gastric cancer cell NCI-N87 and colorectal cancer cell HCT-116 were cultured as a monolayer in vitro, and the culture conditions were RPMI-1640 culture medium supplemented with 10% heat inactivated Fetal Bovine Serum, and incubation in an incubator at 37° C. and 5% CO2. The cells were subcultured by treatment with trypsin-EDTA digestion.
# The tumor cells were respectively inoculated into BALB/c nude mice (SPF grade, female, 16-18 g per mouse, about 6 to 8 weeks old, Beijing Vital River Laboratory Animal Technology Co., Ltd.).
# Each nude mouse was inoculated with about 2.5×10^6 HCT-116 tumor cells or about 3×10^6 NCI-N87 tumor cells (suspended in 0.1 ml PBS) subcutaneously into the underarm of the right flank. After the inoculated tumor reached a size in the range of about 100-200 mm^3, nude mice bearing a tumor that is too small (smaller than 100 mm^3) or too big (bigger than 200 mm^3) were removed from the study, and the remaining ones were randomized into groups.
# Sulfobutyl ether-β-cyclodextrin (SE-β-CD) was formulated with physiological saline to form a 10% solution, which was then filtered through a 0.22 μm sterile filter for later use.
# An appropriate amount of the test compound was weighted, and added in DMSO. The resultant solution was vortexed to uniformity, and the 10% solution of SE-β-CD was added according to the desired concentration. The solution was vortexed to uniformity, and the final concentration of DMSO was adjusted to 5%. A gemcitabine injection (a positive control) was directly diluted to the desired concentration with physiological saline. A 10% solution of SE-β-CD containing 5% DMSO was prepared as a vehicle control.
# Mice bearing a tumor having a volume of about 100-200 mm^3 were selected, and randomized into 5 groups (8 mice per group). The dosing volume was 10 mL/kg, and the administration (intravenous administration (i.v.) or oral administration (p.o.)) was performed twice a week for 3 weeks. The tumor volume and body weight were measured twice a week after the administration, and the mortality of animals was observed every day.
# The diameter of a tumor was measured, and the tumor volume was calculated according to the following formula: V=0.5a×b^2, wherein a and b respectively represent the major and minor diameters of a tumor. The anti-tumor effect was evaluated by the tumor growth inhibition (TGI) (%). TGI (%)=[1−(VT-end−VT-start)/(VC-end−VC-start)]*100%
# The body weight of an animal was measured twice a week.
# [2] = test system: human pancreatic cancer cell PANC-1; experiment: Subcutaneous xenograft of human pancreatic cancer cell PANC-1 in a nude mouse (Experimental example 6); format: in vivo; conditions: once every 3 days, 6 times
# Method: This test was performed according to experimental example 5.
# Mice bearing a tumor having a volume of 100-200 mm^3 were selected, and randomized into 4 groups (6 mice per group).
# [3] = Intravenous toxicity test in mice (administration for 7 days); format: in vivo
# Excerpt: This test was used to investigate the toxic reactions after intravenous administration of compound C8 to normal KM mice for 7 consecutive days.
# KM mice passing the quarantine control were randomized into 4 groups (3 mice/gender/group). The test compound and vehicle control were formulated according to Experimental example 2. The mortality, appearance, behavior, mental status, secretion and excreta etc. of the animals were observed every day for 7 consecutive days after the administration, and the animals were anatomized on day 8.
# [4] = Oral toxicity test in mice (administration for 7 days); format: in vivo; conditions: once per day for 7 days
# Method: Normal Male and female Kunming mice (SPF grade, obtained from Laboratory Animal Center in Sichuan Academy of Chinese Medicine Science) were randomized by weight into groups. The test compound and vehicle control were formulated according to Experimental example 2. The dosage volume was 10 mL/kg, and the administration was performed by oral gavage, once per day for 7 consecutive days.
# [5] = test system: human pancreatic cancer cell Capan-1; experiment: Subcutaneous xenograft of human pancreatic cancer cell Capan-1 in a nude mouse (Experimental example 5); format: in vivo; conditions: once every 3 days, 6 times
# Method: According to methods similar to those in sections 1 to 2 in Experimental example 2, pancreatic cancer cell Capan-1 was cultured as a monolayer in vitro, and inoculated, and the animals were randomized into groups.
# Samples were prepared as described in Experimental example 2.
# Mice bearing a tumor having a volume of 100-200 mm^3 were selected, and randomized into 7 groups (7 mice per group).
# (§1) For statistical calculations of the test indexes, please refer to Experimental example 2.
# [6] = test system: colorectal cancer cell HCT-116; experiment: CCK-8 inhibition of proliferation, HCT-116; format: cell-based, human
# Method: (§2) The tumor cell lines employed in the present experiment were gastric cancer cell NCI-N87 (obtained from Guangzhou Jennio Biological Technology Co., Ltd.), colorectal cancer cell HCT-116 (obtained from Chengdu Center for Safety Evaluation of Drugs), colorectal cancer cell HCT-15 and pancreatic cancer cell BxPC-3 (both obtained from ATCC, US).
# (§3) Each of the cell lines is cultured in a corresponding culture medium (RPMI-1640, IMDM and L-15 culture medium (manufacturer: Gibco)) supplemented with 10% heat inactivated Fetal Bovine Serum (manufacturer: Sigma), in an incubator at 37° C. and 5% CO2.
# For each type of tumor cells, a blank group, a vehicle group (containing 1‰ DMSO) and 8 groups with a test compound at concentrations of 5 nM, 10 nM, 50 nM, 100 nM, 500 nM, 1000 nM, 5000 nM, and 10000 nM (with each concentration in triplicate) were set. […]
# The experiment was performed according to a CCK-8 method as described below. […] OD values at two wavelengths (Detection wavelength: 450 nm, and reference wavelength: 650 nm) were determined on a multifunctional fully-automatic microplate reader.
# (§4) The inhibitory rate of tumor cell growth was calculated according to the following formula: Inhibitory rate=[(ODvehicle−ODblank)−(ODdrug−ODblank)]/(ODvehicle−ODblank)*100%
# (§5) Based on the inhibitory rate, a concentration-inhibitory rate curve was fit using GraphPad prism 5.0 software, and IC50 was calculated.
# [7] = test system: colorectal cancer cell HCT-15; experiment: CCK-8 inhibition of proliferation, HCT-15; format: cell-based, human
# Method: as §2, §3
# (§6) For each type of tumor cells, a blank group, a vehicle group (containing 1‰ DMSO) and 8 groups with a test compound at concentrations of 5 nM, 10 nM, 50 nM, 100 nM, 500 nM, 1000 nM, 5000 nM, and 10000 nM (with each concentration in triplicate) were set.
# (§7) Appropriate amounts of test compounds were weighted, and dissolved in DMSO (cell culture grade, Sigma) to prepare stock solutions of various concentration gradients according to desired concentrations. During incubation, they were diluted by 1000 times as necessary, and incubation solutions with various drug concentrations were prepared (compound stock solution:medium containing 2% FBS=1:1000).
# (§8) The experiment was performed according to a CCK-8 method as described below. Cancer cells to be tested were seeded in a 96-well culture plate at a concentration of 5˜10×10^4/mL (100 μL/well), followed by incubation at 37° C. and 5% CO2 for 24 h. The medium was discarded, and incubation solutions with different drug concentrations (200 μL) were respectively added to each well, and the cells were further incubated for 72 h. After the incubation, a CCK-8 solution (20 μL/well) was added to each well to be tested, and the incubation was continued for 4 h in the incubator. OD values at two wavelengths (Detection wavelength: 450 nm, and reference wavelength: 650 nm) were determined on a multifunctional fully-automatic microplate reader.
# as §4, §5
# [8] = test system: human pancreatic cancer cell BxPC-3; experiment: Subcutaneous xenograft of human pancreatic cancer cell BxPC-3 in a nude mouse (Experimental example 3); format: in vivo; conditions: once every 3 days, 4 times
# Method: According to methods similar to those in sections 1 to 2 in Experimental example 2, pancreatic cancer cell BxPC-3 was cultured as a monolayer in vitro, and inoculated, and the animals were randomized into groups.
# An appropriate amount of the test compound was weighted out, and added in DMSO. The 10% solution of SE-β-CD was then added according to the desired concentration, and the final concentration of DMSO was adjusted to 2.5%. A gemcitabine injection (a positive control) was diluted to the desired concentration with physiological saline. A 10% solution of SE-β-CD containing 2.5% DMSO was prepared as a vehicle control.
# Mice bearing a tumor having a volume of 100-200 mm^3 were selected, and randomized into 14 groups (7 mice per group). The dosing volume was 20 mL/kg, and the administration (intravenous administration (i.v.)) was performed once every 3 days, for 4 times in total.
# as §1
# [9] = test system: gastric cancer cell NCI-N87; experiment: CCK-8 inhibition of proliferation, NCI-N87; format: cell-based, human
# Method: as §2, §3, §6, §7, §8, §4, §5
# [10] = test system: pancreatic cancer cell BxPC-3; experiment: CCK-8 inhibition of proliferation, BxPC-3; format: cell-based, human
# Method: as §2, §3, §6, §7, §8, §4, §5
# [11] = 115.38 μmol/kg i.v., 7 days, anatomy on day 8
smiles,measurement,setting,value
"CC(C)OC(=O)[C@H](C)N[P@](=O)(OC[C@H]1S[C@@H](n2ccc(N)nc2=O)[C@@H](F)[C@@H]1O)Oc1ccccc1 [Compound C8, (S)-isopropyl 2-(((S)-(((2R,3S,4S,5R)-5-(4-amino-2-oxopyrimidin-1(2H)-yl)-4-fluoro-3-hydroxytetrahydrothiophen-2-yl)methoxy)(phenoxy)phosphoryl)amino)propanoate]",TGI (%),[1]; 190 μmol/kg i.v.,109%
same,Body weight change,[1]; 190 μmol/kg i.v.,+8.1%
same,"Tumor regression, CR (complete tumor regression)",[1]; 190 μmol/kg i.v.,8/8 CR
same,TGI (%),[1]; 190 μmol/kg p.o.,110%
same,Body weight change,[1]; 190 μmol/kg p.o.,+8.1%
same,"Tumor regression, CR (complete tumor regression)",[1]; 190 μmol/kg p.o.,8/8 CR
same,TGI (%),[2]; 0.06 mmol/kg p.o.,155%
same,TGI (%),[2]; 0.19 mmol/kg p.o.,195%
same,"body weight increase on day 8, female mice","[3]; 115.38 μmol/kg i.v., 7 days",13.1%
same,"body weight increase on day 8, male mice","[3]; 115.38 μmol/kg i.v., 7 days",26.7%
same,"leukocyte count decrease vs vehicle group, female",[3]; [11],45%
same,"leukocyte count decrease vs vehicle group, male",[3]; [11],49%
same,"platelet count decrease vs vehicle group, female",[3]; [11],43%
same,"platelet count decrease vs vehicle group, male",[3]; [11],39%
same,symptoms observed on day 8,"[3]; compound C8 60.9 mg/kg (115.38 μmol/kg) i.v., 7 consecutive days",no relevant abnormalities were observed
same,dosage at which death of animals occurred,[4]; oral gavage,~115 µmol/kg
same,Results: mortality (3 Male + 3 Female),[4]; ~77 μmol/kg oral gavage,survived
same,Results: clinical symptoms (3 Male + 3 Female),[4]; ~6 mg/kg (~12 μmol/kg) oral gavage,No abnormal symptoms
same,Results: clinical symptoms (3 Male + 3 Female),[4]; ~20 mg/kg (~38 μmol/kg) oral gavage,No abnormal symptoms
same,TGI (%),[5]; 0.02 mmol/kg p.o.,25.6%
same,TGI (%),[5]; 0.06 mmol/kg i.v.,81.8%
same,TGI (%),[5]; 0.06 mmol/kg p.o.,79.1%
same,TGI (%),[5]; 0.19 mmol/kg p.o.,138.5%
same,inhibitory effect on colorectal cancer cell HCT-116 (in words),[6]; FIG. 1: 5-10000 nM,potent inhibitory effects; also recorded: excellent inhibitory effects
same,IC50,"[6]; Homo sapiens, HCT-116, CCK-8, 72 h incubation",485 nM
same,inhibitory effect on colorectal cancer cell HCT-15 (in words),[7]; FIG. 1: 5-10000 nM,potent inhibitory effects; also recorded: excellent inhibitory effects
same,IC50,"[7]; Homo sapiens, HCT-15, CCK-8, 72 h incubation",1960 nM
same,TGI (%),[8]; 0.04 mmol/kg i.v.,26.9%
same,TGI (%),[8]; 0.12 mmol/kg i.v.,74.9%
same,TGI (%),[8]; 0.24 mmol/kg i.v.,82.9%
same,inhibitory effect on gastric cancer cell NCI-N87 (in words),[9]; FIG. 1: 5-10000 nM,potent inhibitory effects; also recorded: excellent inhibitory effects
same,IC50,"[9]; Homo sapiens, NCI-N87, CCK-8, 72 h incubation",483 nM
same,inhibitory effect on pancreatic cancer cell BxPC-3 (in words),[10]; FIG. 1: 5-10000 nM,potent inhibitory effects; also recorded: excellent inhibitory effects
same,IC50,"[10]; Homo sapiens, BXPC-3, CCK-8, 72 h incubation",705 nM
